Data: patent US7935706B2, “Nitrogen-containing heterocycle derivatives substituted with cyclic group” (Shionogi & Co., Ltd., priority 2006, dated 2011)
pIC50: −log10 of the molar value. Read-outs that look alike come from different tables or passages of the source.

What was measured:
[1] = biological target: T1, NMDA receptor (NR1 subunit and NR2B subunit) (Mus musculus, UniProt P35438+Q01097); test: Measurement of expression of NMDA receptor and Ca ion influx amount (glutamic acid/glycine-induced, HEK293 cell co-expressing NR1 and NR2B subunits, Fluo-3/AM); format: cell-based
T1 construct: expressed in transfected cells; host or cells: HEK293 cells, transient transfection with pcDNA3.1 plasmids
T1 sequence (Q01097 27-1482, other chains not shown): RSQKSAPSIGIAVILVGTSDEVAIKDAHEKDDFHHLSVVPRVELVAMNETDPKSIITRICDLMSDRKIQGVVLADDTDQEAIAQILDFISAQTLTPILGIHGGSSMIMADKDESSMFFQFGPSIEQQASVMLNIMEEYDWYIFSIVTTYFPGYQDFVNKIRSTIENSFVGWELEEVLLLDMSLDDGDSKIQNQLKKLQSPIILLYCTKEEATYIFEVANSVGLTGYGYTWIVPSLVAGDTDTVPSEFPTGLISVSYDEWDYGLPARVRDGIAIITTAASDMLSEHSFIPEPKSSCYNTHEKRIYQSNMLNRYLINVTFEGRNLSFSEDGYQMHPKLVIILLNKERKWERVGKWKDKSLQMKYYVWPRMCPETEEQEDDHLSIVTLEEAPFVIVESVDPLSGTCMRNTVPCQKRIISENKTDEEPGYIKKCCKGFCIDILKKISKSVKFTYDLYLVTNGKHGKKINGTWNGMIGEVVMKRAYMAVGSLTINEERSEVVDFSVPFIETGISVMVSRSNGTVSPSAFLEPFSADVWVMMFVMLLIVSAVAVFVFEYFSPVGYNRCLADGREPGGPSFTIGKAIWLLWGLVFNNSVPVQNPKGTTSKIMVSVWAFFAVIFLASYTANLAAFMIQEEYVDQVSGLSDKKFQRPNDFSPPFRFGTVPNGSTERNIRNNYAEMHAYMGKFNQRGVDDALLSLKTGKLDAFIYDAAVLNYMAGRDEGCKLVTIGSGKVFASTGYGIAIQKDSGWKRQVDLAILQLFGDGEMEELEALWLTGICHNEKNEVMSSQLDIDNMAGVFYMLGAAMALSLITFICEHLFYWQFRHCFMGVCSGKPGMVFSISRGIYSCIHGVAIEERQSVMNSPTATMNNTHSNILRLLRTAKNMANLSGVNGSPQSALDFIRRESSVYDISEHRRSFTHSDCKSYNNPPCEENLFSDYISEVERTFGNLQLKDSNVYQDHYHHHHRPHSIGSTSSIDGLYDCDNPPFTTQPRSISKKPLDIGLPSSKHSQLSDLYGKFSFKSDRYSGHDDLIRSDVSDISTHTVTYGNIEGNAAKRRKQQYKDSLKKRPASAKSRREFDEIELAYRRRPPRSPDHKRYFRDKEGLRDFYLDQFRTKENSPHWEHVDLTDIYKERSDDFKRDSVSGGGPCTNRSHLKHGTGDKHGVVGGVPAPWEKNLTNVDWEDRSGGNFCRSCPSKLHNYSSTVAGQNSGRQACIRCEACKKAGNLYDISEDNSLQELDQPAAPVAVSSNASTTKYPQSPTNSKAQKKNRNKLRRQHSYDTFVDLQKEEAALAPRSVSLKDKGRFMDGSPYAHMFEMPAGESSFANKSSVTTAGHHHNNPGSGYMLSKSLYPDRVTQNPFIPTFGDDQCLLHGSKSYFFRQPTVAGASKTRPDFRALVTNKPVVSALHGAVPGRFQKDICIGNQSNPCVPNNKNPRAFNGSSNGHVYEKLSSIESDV
Experimental: Measurement of Expression of NMDA Receptor and Ca Ion Influx Amount
A complementary DNA (cDNA) of a mouse NMDA receptor subunit was transiently introduced into a HEK293 cell and, after 1 day from introduction, change in a glutamic acid/glycine-induced intracelluar Ca amount was measured using a Ca ion reactive fluorescent coloring matter.
The HEK293 cell was cultured, and passaged using a modified Dulbecco's Eagle medium (DMEM, low glucose).
The HEK293 cell (20,000/well) was seeded on a 96-well plate, a NR1 subunit and a NR2B subunit of the NMDA receptor incorporated into the pcDNA3.1 plasmid were transiently introduced into a cell, and the subunits were co-expressed. An introduction amount of a DNA was 0.025 μg in the case of the NR1 subunit, and 0.075 μg in the case of NR2B subunit per well. For the cell after introduction, cell death was inhibited using 50 μM of the NMDA receptor antagonist MK-801.
For adjusting a test compound and washing a cell, Krebs/Ringer/Hepes buffer (KRH, Ca: 5 mM) was used.
After 1 day from introduction, the NMDA receptor antagonist MK-801 was washed out using the KRH buffer, and a Ca ion indication fluorescent coloring matter Fluo-3/AM was made to be taken into the cell. Ca ion influx was induced with 20 μM glutamic acid/2 μM glycine. Change in a fluorescent amount due to Ca ion influx into the cell was measured at excitation of 480 nm using a fluorescent imaging system FDSS 3000.
From a measured value of the test compound, a Ca ion influx inhibition rate (%) was obtained by the following equation, and a dose at which influx is inhibited 50% (IC50) was calculated.
Ca ion influx inhibition rate(%)=100−[(fluorescent amount in the presence of test compound−background fluorescent amount)/(total fluorescent amount−background fluorescent)]×100

[2] = biological target: T2, NR1/NR2B receptor (Rattus norvegicus, UniProt P35439+Q00960); test: Test of binding with NMDA receptor (NR1/NR2B receptor): competition with [3H]-Ifenprodil on rat cerebral cortex membrane specimen; conditions: for IC50: [3H]-Ifenprodil 5 nM, GBR-12909 3 μM, rat cerebral cortex membranes, ice temperature 120 minutes, read-out: NR2B (IC50 μM); for pIC50: same binding test, read-out: IC50 (binding with NR1/NR2B receptor)
T2 construct: from tissue; host or cells: rat cerebral cortex membranes (male Slc: Wistar rat)
T2 sequence (Q00960 27-1482, other chains not shown): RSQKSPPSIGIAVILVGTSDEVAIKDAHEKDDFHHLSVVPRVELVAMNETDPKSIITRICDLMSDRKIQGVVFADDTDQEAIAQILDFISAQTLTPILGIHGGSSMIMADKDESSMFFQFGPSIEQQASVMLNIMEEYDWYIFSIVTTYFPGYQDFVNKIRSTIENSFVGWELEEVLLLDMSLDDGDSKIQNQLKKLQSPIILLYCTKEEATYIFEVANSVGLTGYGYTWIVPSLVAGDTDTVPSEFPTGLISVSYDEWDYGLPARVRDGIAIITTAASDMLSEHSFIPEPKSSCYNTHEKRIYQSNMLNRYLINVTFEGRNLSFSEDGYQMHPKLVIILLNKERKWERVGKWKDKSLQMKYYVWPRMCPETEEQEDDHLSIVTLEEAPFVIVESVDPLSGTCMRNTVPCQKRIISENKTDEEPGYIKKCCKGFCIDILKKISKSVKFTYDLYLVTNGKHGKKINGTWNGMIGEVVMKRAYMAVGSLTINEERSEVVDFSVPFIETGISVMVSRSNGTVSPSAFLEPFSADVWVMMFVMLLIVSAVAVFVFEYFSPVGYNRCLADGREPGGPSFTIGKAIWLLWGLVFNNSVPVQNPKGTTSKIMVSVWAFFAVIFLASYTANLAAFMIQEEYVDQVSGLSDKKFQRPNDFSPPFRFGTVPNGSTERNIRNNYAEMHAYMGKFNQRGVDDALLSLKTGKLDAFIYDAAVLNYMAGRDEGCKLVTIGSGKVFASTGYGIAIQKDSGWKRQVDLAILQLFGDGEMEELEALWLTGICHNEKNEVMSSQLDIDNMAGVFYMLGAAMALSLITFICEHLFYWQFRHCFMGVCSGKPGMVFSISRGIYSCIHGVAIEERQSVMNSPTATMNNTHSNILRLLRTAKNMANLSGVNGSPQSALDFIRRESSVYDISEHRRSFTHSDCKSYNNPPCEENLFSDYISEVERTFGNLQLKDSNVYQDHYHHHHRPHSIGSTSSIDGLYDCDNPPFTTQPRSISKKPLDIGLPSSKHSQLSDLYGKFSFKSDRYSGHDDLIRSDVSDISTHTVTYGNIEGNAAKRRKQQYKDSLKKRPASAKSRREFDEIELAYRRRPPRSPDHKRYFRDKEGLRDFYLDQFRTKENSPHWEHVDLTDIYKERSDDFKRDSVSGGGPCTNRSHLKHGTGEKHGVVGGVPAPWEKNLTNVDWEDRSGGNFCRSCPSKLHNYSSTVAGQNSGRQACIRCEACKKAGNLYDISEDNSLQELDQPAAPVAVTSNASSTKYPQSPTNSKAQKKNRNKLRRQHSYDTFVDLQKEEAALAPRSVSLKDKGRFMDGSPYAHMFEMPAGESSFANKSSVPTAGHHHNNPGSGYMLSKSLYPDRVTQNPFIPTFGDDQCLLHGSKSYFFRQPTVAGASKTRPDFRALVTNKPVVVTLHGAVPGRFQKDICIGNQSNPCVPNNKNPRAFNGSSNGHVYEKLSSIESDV
Experimental: Test of Binding with NMDR Receptor (NR1/NR2B Receptor)
Using Ifenprodil which is an antagonist specific for a NR1/NR2B subtype receptor as a ligand, an experiment of competition between a receptor and a test compound was performed.
Using a male Slc: Wistar rat as an animal, a brain was isolated after decapitation, and a cerebral cortex was fractionated. The cerebral cortex was homogenized with a 20-fold amount of an ice-cooled 50 mM Tris/HCl buffer (pH 7.4), and the homogenate was centrifuged at 4° C. and 27,500×g for 10 minutes. The resulting precipitate was suspended in the same buffer, and this was again centrifuged. This operation was repeated for three times, the resulting precipitate was suspended in a buffer, and this was stored at −80° C. Immediately before an experiment, the frozen suspension was thawed at room temperature, this was centrifuged at 4° C. and 27,500×g for 10 minutes, and the resulting precipitate was suspended in a buffer. Further, the suspension was diluted 10-fold with a buffer, and this was used as a membrane specimen in an experiment. In a binding experiment, to 470 μl of the membrane specimen were added […] of each of test compounds having different concentrations, 10 μl of a labeled ligand [^3H]-Ifenprodil and 10 μl GBR-12909, followed by incubation at an ice temperature for 120 minutes. A concentration of [^3H]-Ifenprodil of the labeled ligand was finally 5 nM, and a concentration of GBR-12909 was finally 3 μM. For measuring a total binding amount, DMSO as a solvent was used and, for measuring a non-specific binding amount, 100 μM Ifenprodil was used. GBR-12909 was added in order to block binding of [^3H]-Ifenprodil to non-polyamine-sensitive site. After incubation, a bound formand a free foramwere separated using Whatman GF/C filter (manufactured by Whatman), and the filter was washed with 2.5 ml ice-cooled buffer four times. The filter was immersed in liquid scintillation (Cryasol I, manufactured by Nacalai tesque), and radioactivity (dpm) was measured with a liquid scintillation counter. From a measured value, a binding inhibition rate (%) was obtained by the following equation, and a dose at which binding is inhibited 50% (IC50) was calculated. A formula of GBR-12909 (vanoxerine) is shown below.
Binding inhibition rate(%)=100−[(binding amount in the presence of test compound−non-specific binding amount)/(total binding amount−non-specific binding amount)]×100

[3] = Ca ion influx induced with 20 μM glutamic acid/2 μM glycine, HEK293 cell with mouse NR1/NR2B, read-out: Ca2+ IC50
[4] = same Ca ion influx test, read-out: IC50 (Ca ion influx inhibition)

Row | melting point | pIC50 [1, 3] | IC50 [2] [µM] | pIC50 [1, 4] | pIC50 [2] | SMILES
1 | 264 to 266 °C (dec.) |  |  |  |  | CC(=O)c1ccc(N2CCN(C(=O)C(=O)Nc3ccc4[nH]c(=O)oc4c3)CC2)cc1 [Compound I-203]
2 |  | 7.47 | 0.034 |  |  | O=C(Nc1cnc2[nH]c(=O)oc2c1)C(=O)N1CCN(c2ccc(Cl)c(F)c2)CC1 [Compound I-113]
3 | 201 to 203 °C |  |  |  |  | COc1cc(N2CCN(C(=O)C(=O)Nc3ccc4[nH]c(=O)oc4c3)CC2)ccc1Cl [Compound I-250]
4 |  | 7.96 | 0.041 |  |  | O=C(C=C1CCN(c2ccc(Cl)c(Cl)c2)CC1)Nc1ccc2[nH]c(=O)oc2c1 [Compound I-184]
5 |  | 9.00 | 0.012 |  |  | O=C(Nc1ccc2[nH]c(=O)oc2c1)C(=O)N1CCN(c2ccc(Cl)c(F)c2)CC1 [Compound I-109]
6 |  |  |  | ≥ 7.00 | ≥ 7.00 | O=C(C=C1CCN(c2ccc(OC(F)(F)F)cc2)CC1)Nc1ccc2[nH]c(=O)oc2c1 [Compound I-225]
7 | 226 to 228 °C |  |  |  |  | CCOc1ccc(N2CCN(C(=O)C(=O)Nc3ccc4[nH]c(=O)oc4c3)CC2)cc1F [Compound I-253]
8 |  |  |  | ≥ 7.00 | ≥ 7.00 | O=C(Nc1ccc2[nH]c(=O)oc2c1)C(=O)N1CCN(c2ccc(OC(F)F)cc2)CC1 [Compound I-233]
9 | 122 to 124 °C |  |  |  |  | COc1cc(N2CCN(C(=O)C(=O)Nc3ccc4[nH]c(=O)oc4c3)C[C@H]2C)ccc1Cl [Compound I-251]
10 |  | 7.89 | 0.062 |  |  | O=C(C=C1CCN(c2ccc(C(F)(F)F)c(F)c2)CC1)Nc1ccc2[nH]c(=O)oc2c1 [Compound I-180]
11 | 118 to 120 °C |  |  |  |  | COc1ccc(N2CCN(C(=O)C(=O)Nc3ccc4[nH]c(=O)oc4c3)C[C@H]2C)cc1Cl [Compound I-248]
12 |  |  |  | ≥ 7.00 | ≥ 7.00 | O=C(C=C1CCN(c2ccc(OC(F)F)cc2)CC1)Nc1ccc2[nH]c(=O)oc2c1 [Compound I-237]
13 |  |  |  | ≥ 7.00 | ≥ 7.00 | O=C(Nc1cnc2[nH]c(=O)oc2c1)C(=O)N1CCN(c2ccc(C(F)(F)F)c(F)c2)CC1 [Compound I-107]
14 |  |  |  | ≥ 7.00 | ≥ 7.00 | C[C@@H]1CN(C(=O)C(=O)Nc2ccc3[nH]c(=O)oc3c2)CCN1c1ccc(Cl)c(F)c1 [Compound I-207]
15 |  |  |  | ≥ 7.00 | ≥ 7.00 | O=C(Nc1ccc2[nH]c(=O)oc2c1)C(=O)N1CCCN(c2ccc(C(F)(F)F)c(F)c2)CC1 [Compound I-114]
16 |  |  | 0.029 | ≥ 7.00 |  | C[C@@H]1CN(c2ccc(Cl)cc2)CCN1C(=O)C(=O)Nc1ccc2[nH]c(=O)oc2c1 [Compound I-178]
17 |  |  |  | ≥ 7.00 | ≥ 7.00 | C[C@@H]1CN(c2ccc(F)c(Cl)c2)CCN1C(=O)C(=O)Nc1ccc2[nH]c(=O)oc2c1 [Compound I-221]
18 |  |  | 0.059 | ≥ 7.00 |  | C[C@@H]1CN(C(=O)C(=O)Nc2ccc3[nH]c(=O)oc3c2)CCN1c1ccc(Cl)cc1 [Compound I-177]
19 |  | 7.31 | 0.049 |  |  | O=C(CC1(O)CCN(c2ccc(C(F)(F)F)c(F)c2)CC1)Nc1ccc2[nH]c(=O)oc2c1 [Compound I-116]
20 |  |  |  | ≥ 7.00 | ≥ 7.00 | C[C@@H]1CN(C(=O)C(=O)Nc2ccc3[nH]c(=O)oc3c2)CCN1c1ccc(Cl)cn1 [Compound I-228]

Continued, compound first:

Row | SMILES | melting point | pIC50 [1, 3] | IC50 [2] [µM] | pIC50 [1, 4] | pIC50 [2]
21 | O=C(CC1(O)CCN(c2ccc(C(F)(F)F)cc2)CC1)Nc1ccc2c(c1)CCC(=O)N2 [Compound I-64] | 222 to 223 °C |  |  |  | 
22 | O=C(CC1=CCN(c2ccc(C(F)(F)F)cn2)CC1)Nc1ccc2[nH]c(=O)oc2c1 [Compound I-63] | 236 to 237 °C | 7.10 |  |  | 
23 | O=C(CC1(O)CCN(c2ccc(C(F)(F)F)cn2)CC1)Nc1ccc2[nH]c(=O)oc2c1 [Compound I-61] | 218 to 219 °C | 7.43 |  |  | 
24 | O=C(NCCC1CCN(c2ccc(C(F)(F)F)cn2)CC1)c1ccc(=O)[nH]c1 [Compound I-6] | 232 to 234 °C | 7.41 |  |  | 
25 | O=C(NC1CCN(c2ccc(Cl)cc2)CC1)c1ccc(=O)[nH]c1 [Compound I-4] | 274 to 275 °C (dec.) |  |  |  | 
26 | O=C(NCC1CCN(c2ccc(C(F)(F)F)cc2)CC1)c1ccc(=O)[nH]c1 [Compound I-3] | 283 to 284 °C (dec.) |  |  |  | 
27 | O=C(Nc1ccc2[nH]c(=O)oc2c1)C(=O)N1CCN(c2ccc(C(F)(F)F)c(F)c2)CC1 [Compound I-98] |  |  | 0.015 | ≥ 7.00 | 
28 | O=C(Nc1cnc2[nH]c(=O)[nH]c2c1)C(=O)N1CCN(c2ccc(C(F)(F)F)cc2)CC1 [Compound I-101] |  | 9.00 | 0.011 |  | 
29 | O=C(Nc1ccc2[nH]c(=O)oc2c1)C(=O)N1CCN(c2ccc(Cl)c(Cl)c2)CC1 [Compound I-104] |  | 9.00 | 0.016 |  | 
30 | O=C(C=C1CCN(c2ccc(C(F)(F)F)cn2)CC1)Nc1ccc2[nH]c(=O)oc2c1 [Compound I-43] |  | 8.05 | 0.017 |  | 
31 | O=C(CC1CCN(c2ccc(C(F)(F)F)cn2)CC1)Nc1ccc2[nH]c(=O)oc2c1 [Compound I-62] | 229 to 230 °C | 7.04 |  |  | 
32 | O=C(Nc1ccc2[nH]c(=O)[nH]c2c1)C(=O)N1CCN(c2ccc(C(F)(F)F)cc2)CC1 [Compound I-79] |  | 8.70 | 0.013 |  | 
33 | O=C(Nc1ccc2[nH]c(=O)oc2c1)C(F)=C1CCN(c2ccc(C(F)(F)F)cc2)CC1 [Compound I-42] |  | 7.89 | 0.107 |  | 
34 | O=C(C=C1CCN(c2ccc(Cl)cn2)CC1)Nc1ccc2[nH]c(=O)oc2c1 [Compound I-45] |  | 7.64 |  |  | ≥ 7.00
35 | O=C(Nc1ccc2[nH]c(=O)oc2c1)NC1CCN(c2ccc(C(F)(F)F)cc2)CC1 [Compound I-23] |  | 7.60 | 0.04 |  | 
36 | O=C(Nc1ccc2[nH]c(=O)oc2c1)C(=O)N1CCN(c2ccc(C(F)(F)F)cc2)CC1 [Compound I-55] |  | 8.15 | 0.025 |  | 
37 | O=C(Nc1ccc2[nH]c(=O)oc2c1)C(=O)N1CCN(c2ccc(C(F)(F)F)cn2)CC1 [Compound I-103] |  |  | 0.018 | ≥ 7.00 | 
38 | O=C(Nc1ccc2[nH]c(=O)oc2c1)C(=O)N1CCN(c2ccc(Br)cc2)CC1 [Compound I-87] |  |  | 0.012 | ≥ 7.00 | 
39 | O=C(Nc1ccc2[nH]c(=O)oc2c1)C(=O)N1CCN(c2ccc(F)c(F)c2)CC1 [Compound I-99] |  |  |  | ≥ 7.00 | ≥ 7.00
40 | O=C(NCCC1(O)CCN(c2ccc(C(F)(F)F)cn2)CC1)c1cn[nH]c1 [Compound I-67] | 199 to 200 °C |  |  |  | 
41 | O=C(CC1(O)CCN(c2ccc(C(F)(F)F)cc2)CC1)Nc1ccc2[nH]c(=O)sc2c1 [Compound I-70] |  | 7.82 | 0.068 |  | 
42 | O=C(CC1(O)CCN(c2ccc(C(F)(F)F)cc2)CC1)Nc1ccc2c(c1)CC(=O)N2 [Compound I-65] | 260 to 261 °C |  |  |  | 
43 | O=C(Nc1cnc2[nH]c(=O)oc2c1)C(=O)N1CCN(c2ccc(Cl)c(Cl)c2)CC1 [Compound I-105] |  | 8.00 | 0.045 |  | 
44 | O=C(CCC1CCN(c2ccc(C(F)(F)F)cc2)CC1)Nc1ccc(=O)[nH]c1 [Compound I-21] |  | 7.43 | 0.096 |  | 
